Source: the supplement of paper PMC10307832

Columns and labels:
Experiment in all cases: relative viability (nuclei count vs DMSO), 5 days (fraction); higher = more cells survive
[1] = compound: COc1cccc2c1C(=O)c1c(O)c3c(c(O)c1C2=O)C[C@@](O)(C(=O)CO)C[C@@H]3O[C@H]1C[C@H](N)[C@H](O)[C@H](C)O1 [Doxorubicin] + CC(=O)c1c(C)c2cnc(Nc3ccc(N4CCNCC4)cn3)nc2n(C2CCCC2)c1=O [Palbociclib] (partner 0.5 µM)
How it was run: (§1)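 One day after seeding in 1536-well plates, lung cancer cell lines were dosed by pin tool. Dosing was either single-drug or a fixed anchor-drug dose plus five library-drug doses (not always all listed) in √10 steps. After 5 days, nuclei were stained in one fix-and-stain step and counted on 4× images, and relative viability is the nuclei count of treated wells over that of vehicle wells, given as the median of duplicate plates.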

BAY61-3606 + Crizotinib = compound: COC1=C(C=C(C=C1)C2=CC3=NC=CN3C(=N2)NC4=C(C=CC=N4)C(=O)N)OC [BAY61-3606] + C[C@@H](Oc1cc(-c2cnn(C3CCNCC3)c2)cnc1N)c1c(Cl)ccc(F)c1Cl [Crizotinib] (partner 1 µM)
How it was run: as §1

Doxorubicin + Trametinib = compound: COc1cccc2c1C(=O)c1c(O)c3c(c(O)c1C2=O)C[C@@](O)(C(=O)CO)C[C@@H]3O[C@H]1C[C@H](N)[C@H](O)[C@H](C)O1 [Doxorubicin] + CC(=O)Nc1cccc(-n2c(=O)n(C3CC3)c(=O)c3c(Nc4ccc(I)cc4F)n(C)c(=O)c(C)c32)c1 [Trametinib] (partner 0.02 µM)
How it was run: as §1

Doxorubicin + Vorinostat = compound: COc1cccc2c1C(=O)c1c(O)c3c(c(O)c1C2=O)C[C@@](O)(C(=O)CO)C[C@@H]3O[C@H]1C[C@H](N)[C@H](O)[C@H](C)O1 [Doxorubicin] + O=C(CCCCCCC(=O)Nc1ccccc1)NO [Vorinostat] (partner 1 µM)
How it was run: as §1

## UMC-11
[1]; first compound 0.001 µM
  relative viability: 0.378
[1]; first compound 0.003162 µM
  relative viability: 0.339
[1]; first compound 0.01 µM
  relative viability: 0.314
[1]; first compound 0.03162 µM
  relative viability: 0.256
[1]; first compound 0.1 µM
  relative viability: 0.325
BAY61-3606 + Crizotinib; first compound 0.02 µM
  relative viability: 0.664
BAY61-3606 + Crizotinib; first compound 0.06325 µM
  relative viability: 0.613
BAY61-3606 + Crizotinib; first compound 0.2 µM
  relative viability: 0.503
BAY61-3606 + Crizotinib; first compound 0.6325 µM
  relative viability: 0.762
BAY61-3606 + Crizotinib; first compound 2 µM
  relative viability: 0.509
Doxorubicin + Trametinib; first compound 0.001 µM
  relative viability: 0.948
Doxorubicin + Trametinib; first compound 0.003162 µM
  relative viability: 0.761
Doxorubicin + Trametinib; first compound 0.01 µM
  relative viability: 0.768
Doxorubicin + Trametinib; first compound 0.03162 µM
  relative viability: 0.366
Doxorubicin + Trametinib; first compound 0.1 µM
  relative viability: 0.442
Doxorubicin + Vorinostat; first compound 0.001 µM
  relative viability: 0.52
Doxorubicin + Vorinostat; first compound 0.003162 µM
  relative viability: 0.354
Doxorubicin + Vorinostat; first compound 0.01 µM
  relative viability: 0.432
Doxorubicin + Vorinostat; first compound 0.03162 µM
  relative viability: 0.329
Doxorubicin + Vorinostat; first compound 0.1 µM
  relative viability: 0.37
